Assay results published in ChEMBL document CHEMBL5291721, “A preclinical secondary pharmacology resource illuminates target-adverse drug reaction associations of marketed drugs” (Nat Commun, 2023).

How the values were obtained:
[1] = target: Beta-1 adrenergic receptor (Homo sapiens, UniProt P08588); assay type: functional
[2] = target: T1, 5-hydroxytryptamine receptor 2C (Homo sapiens, UniProt P28335)
T1 sequence (P28335 whole entry): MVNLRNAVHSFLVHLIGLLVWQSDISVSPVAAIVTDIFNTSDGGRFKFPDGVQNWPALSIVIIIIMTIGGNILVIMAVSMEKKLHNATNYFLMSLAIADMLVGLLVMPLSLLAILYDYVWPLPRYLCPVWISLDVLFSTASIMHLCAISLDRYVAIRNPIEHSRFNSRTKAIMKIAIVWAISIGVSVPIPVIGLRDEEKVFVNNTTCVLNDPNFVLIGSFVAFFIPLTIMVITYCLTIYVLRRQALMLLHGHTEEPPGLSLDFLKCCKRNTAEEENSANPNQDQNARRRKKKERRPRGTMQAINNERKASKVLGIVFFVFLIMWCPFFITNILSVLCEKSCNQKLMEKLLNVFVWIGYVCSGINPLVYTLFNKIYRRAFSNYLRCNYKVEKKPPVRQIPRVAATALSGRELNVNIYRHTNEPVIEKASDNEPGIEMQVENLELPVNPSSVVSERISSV

[3] = target: T2, Alpha-1A adrenergic receptor (Homo sapiens, UniProt P35348); assay type: functional, cell-based
T2 sequence (P35348 whole entry): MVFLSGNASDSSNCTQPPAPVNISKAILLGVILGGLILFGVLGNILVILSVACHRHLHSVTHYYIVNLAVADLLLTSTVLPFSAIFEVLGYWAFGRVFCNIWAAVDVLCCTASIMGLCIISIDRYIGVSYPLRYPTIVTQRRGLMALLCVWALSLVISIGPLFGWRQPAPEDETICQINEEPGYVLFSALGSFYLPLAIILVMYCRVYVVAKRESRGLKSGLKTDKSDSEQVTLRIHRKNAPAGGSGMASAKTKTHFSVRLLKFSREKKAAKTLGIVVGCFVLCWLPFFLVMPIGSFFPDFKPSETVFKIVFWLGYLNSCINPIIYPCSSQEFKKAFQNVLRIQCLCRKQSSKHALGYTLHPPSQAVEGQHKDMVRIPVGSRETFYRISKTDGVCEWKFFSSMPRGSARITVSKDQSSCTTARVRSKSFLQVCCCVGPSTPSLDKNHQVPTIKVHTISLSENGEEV

[4] = target: 5-hydroxytryptamine receptor 2A (Homo sapiens, UniProt P28223); assay type: functional, cell-based
Sequence of 5-hydroxytryptamine receptor 2A (P28223 whole entry): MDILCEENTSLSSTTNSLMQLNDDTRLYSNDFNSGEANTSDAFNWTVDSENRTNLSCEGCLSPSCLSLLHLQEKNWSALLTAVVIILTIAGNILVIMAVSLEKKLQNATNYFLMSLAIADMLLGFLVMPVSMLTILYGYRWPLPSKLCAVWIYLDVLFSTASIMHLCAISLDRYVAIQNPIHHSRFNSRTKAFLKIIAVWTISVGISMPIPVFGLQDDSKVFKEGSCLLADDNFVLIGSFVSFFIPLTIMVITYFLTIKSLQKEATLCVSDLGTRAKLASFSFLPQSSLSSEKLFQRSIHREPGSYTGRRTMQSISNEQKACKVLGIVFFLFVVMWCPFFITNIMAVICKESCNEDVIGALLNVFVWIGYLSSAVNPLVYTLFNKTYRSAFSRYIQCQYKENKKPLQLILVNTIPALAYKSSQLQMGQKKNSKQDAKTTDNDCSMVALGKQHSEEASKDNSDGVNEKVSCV

[5] = target: T3, Amine oxidase [flavin-containing] A (Homo sapiens, UniProt P21397); assay type: functional
T3 sequence (P21397 whole entry): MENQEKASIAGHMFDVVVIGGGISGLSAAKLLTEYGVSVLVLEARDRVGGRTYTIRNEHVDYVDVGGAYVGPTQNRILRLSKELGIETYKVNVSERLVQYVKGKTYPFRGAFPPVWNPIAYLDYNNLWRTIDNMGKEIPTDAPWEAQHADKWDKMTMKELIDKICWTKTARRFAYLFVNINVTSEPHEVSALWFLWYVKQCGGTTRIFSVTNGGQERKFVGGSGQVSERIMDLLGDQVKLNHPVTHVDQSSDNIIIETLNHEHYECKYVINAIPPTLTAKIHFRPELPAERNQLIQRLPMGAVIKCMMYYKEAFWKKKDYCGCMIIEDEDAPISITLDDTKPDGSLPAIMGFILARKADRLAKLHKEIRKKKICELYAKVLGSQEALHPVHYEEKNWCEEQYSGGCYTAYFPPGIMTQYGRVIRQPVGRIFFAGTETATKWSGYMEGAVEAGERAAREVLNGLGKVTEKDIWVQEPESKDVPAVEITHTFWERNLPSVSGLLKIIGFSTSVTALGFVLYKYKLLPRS

[6] = target: Glutamate receptor ionotropic, NMDA 1 (Rattus norvegicus, UniProt P35439)
[7] = target: Kappa-type opioid receptor (Homo sapiens, UniProt P41145)
Sequence of Kappa-type opioid receptor (P41145 whole entry): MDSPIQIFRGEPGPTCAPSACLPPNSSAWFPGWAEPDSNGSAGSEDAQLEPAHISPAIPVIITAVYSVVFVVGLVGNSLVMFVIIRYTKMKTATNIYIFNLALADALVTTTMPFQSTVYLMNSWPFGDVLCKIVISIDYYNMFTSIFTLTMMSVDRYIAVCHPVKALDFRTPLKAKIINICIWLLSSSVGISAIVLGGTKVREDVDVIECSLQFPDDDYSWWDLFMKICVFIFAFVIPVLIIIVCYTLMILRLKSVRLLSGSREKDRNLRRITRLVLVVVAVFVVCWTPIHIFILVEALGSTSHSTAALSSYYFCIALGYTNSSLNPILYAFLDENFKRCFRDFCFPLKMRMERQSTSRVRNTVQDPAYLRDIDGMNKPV

[8] = target: Voltage-dependent L-type calcium channel subunit alpha-1C (Rattus norvegicus, UniProt P22002); assay type: functional
Sequence of Voltage-dependent L-type calcium channel subunit alpha-1C (P22002 whole entry): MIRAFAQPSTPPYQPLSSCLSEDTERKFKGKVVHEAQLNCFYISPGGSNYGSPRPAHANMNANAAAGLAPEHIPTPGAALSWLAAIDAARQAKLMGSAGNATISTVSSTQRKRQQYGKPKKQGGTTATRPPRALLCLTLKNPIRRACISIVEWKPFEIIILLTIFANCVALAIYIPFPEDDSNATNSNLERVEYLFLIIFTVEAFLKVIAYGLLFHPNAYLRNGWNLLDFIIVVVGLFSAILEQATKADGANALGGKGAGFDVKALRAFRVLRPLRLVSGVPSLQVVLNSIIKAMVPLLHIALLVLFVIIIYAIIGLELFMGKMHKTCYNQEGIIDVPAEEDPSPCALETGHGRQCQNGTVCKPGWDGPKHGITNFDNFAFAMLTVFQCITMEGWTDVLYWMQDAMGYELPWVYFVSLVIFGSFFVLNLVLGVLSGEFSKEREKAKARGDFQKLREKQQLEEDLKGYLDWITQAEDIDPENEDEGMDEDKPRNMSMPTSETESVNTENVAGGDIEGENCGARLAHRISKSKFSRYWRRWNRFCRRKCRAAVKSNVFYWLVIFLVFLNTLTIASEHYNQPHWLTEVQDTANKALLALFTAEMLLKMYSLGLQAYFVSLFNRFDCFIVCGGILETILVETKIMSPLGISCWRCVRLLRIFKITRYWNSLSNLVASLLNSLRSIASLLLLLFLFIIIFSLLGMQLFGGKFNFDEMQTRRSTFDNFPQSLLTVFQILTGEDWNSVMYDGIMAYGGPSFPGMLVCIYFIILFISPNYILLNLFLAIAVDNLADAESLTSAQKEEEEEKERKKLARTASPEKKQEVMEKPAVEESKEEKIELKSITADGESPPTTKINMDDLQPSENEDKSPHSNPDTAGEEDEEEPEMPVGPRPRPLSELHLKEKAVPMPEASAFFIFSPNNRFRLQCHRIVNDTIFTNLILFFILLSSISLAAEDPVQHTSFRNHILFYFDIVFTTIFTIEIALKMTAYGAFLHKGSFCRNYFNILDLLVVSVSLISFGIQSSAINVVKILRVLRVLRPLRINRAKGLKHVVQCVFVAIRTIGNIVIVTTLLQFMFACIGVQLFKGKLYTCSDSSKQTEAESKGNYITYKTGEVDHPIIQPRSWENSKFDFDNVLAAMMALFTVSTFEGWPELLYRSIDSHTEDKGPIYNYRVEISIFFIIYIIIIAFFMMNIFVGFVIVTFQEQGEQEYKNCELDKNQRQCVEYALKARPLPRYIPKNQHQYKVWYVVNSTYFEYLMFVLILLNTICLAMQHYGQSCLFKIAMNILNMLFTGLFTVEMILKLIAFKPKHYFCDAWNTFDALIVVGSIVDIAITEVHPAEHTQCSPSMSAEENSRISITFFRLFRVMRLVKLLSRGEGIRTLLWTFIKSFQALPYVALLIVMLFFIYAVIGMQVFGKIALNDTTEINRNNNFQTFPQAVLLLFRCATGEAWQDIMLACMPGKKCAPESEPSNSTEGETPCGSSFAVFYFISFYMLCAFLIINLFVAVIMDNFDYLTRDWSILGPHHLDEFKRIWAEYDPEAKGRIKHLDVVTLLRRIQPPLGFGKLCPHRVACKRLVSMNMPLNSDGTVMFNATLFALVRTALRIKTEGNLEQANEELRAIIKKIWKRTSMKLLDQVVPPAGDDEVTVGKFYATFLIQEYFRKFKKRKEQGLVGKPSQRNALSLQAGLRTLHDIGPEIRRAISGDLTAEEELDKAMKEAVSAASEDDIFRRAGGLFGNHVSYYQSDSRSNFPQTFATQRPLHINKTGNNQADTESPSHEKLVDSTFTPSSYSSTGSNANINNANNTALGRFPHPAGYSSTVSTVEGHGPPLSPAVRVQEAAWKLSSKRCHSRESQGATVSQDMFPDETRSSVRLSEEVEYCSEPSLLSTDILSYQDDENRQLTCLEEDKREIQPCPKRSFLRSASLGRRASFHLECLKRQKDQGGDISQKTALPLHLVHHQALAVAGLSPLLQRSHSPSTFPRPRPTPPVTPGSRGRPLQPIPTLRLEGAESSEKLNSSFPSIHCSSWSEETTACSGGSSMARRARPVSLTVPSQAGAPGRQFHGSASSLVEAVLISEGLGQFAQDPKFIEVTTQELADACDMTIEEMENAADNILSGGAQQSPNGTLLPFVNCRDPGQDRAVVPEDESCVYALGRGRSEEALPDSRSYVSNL

[9] = target: T3, Amine oxidase [flavin-containing] A; assay type: functional; remark: listed apart in the source
[10] = target: Sodium-dependent dopamine transporter (Homo sapiens, UniProt Q01959)
Sequence of Sodium-dependent dopamine transporter (Q01959 whole entry): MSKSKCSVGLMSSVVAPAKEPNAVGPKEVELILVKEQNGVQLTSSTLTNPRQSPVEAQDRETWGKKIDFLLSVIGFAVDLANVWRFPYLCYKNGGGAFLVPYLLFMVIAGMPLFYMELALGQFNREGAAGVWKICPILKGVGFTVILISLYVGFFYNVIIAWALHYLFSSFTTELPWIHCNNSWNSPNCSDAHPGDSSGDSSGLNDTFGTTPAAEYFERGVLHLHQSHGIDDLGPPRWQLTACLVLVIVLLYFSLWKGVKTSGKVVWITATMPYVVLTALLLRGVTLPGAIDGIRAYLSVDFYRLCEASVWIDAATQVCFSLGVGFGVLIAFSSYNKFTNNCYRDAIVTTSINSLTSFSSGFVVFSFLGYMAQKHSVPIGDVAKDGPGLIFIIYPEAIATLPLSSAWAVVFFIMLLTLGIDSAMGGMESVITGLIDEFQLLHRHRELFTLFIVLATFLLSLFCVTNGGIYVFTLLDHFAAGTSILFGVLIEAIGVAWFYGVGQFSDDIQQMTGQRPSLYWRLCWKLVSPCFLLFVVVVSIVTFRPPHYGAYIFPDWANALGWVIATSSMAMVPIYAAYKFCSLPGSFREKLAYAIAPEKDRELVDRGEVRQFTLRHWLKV

[11] = target: T2, Alpha-1A adrenergic receptor; assay type: functional, cell-based; remark: listed apart in the source
[12] = target: T4, Muscarinic acetylcholine receptor M2 (Homo sapiens, UniProt P08172)
T4 sequence (P08172 whole entry): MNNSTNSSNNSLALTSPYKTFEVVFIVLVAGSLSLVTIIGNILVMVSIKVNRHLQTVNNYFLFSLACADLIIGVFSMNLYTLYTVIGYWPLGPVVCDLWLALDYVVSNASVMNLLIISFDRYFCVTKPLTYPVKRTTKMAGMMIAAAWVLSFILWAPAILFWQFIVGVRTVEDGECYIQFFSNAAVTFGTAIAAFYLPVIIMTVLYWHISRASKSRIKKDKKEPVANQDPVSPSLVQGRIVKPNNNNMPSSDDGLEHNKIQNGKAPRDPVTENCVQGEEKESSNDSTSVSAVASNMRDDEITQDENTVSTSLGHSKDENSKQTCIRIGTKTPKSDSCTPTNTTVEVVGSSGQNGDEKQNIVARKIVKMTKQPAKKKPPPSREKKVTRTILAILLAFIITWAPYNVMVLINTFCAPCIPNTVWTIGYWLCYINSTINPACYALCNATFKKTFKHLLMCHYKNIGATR

[13] = target: Vascular endothelial growth factor receptor 2 (Homo sapiens, UniProt P35968); assay type: functional
[14] = target: T2, Alpha-1A adrenergic receptor; assay type: functional, cell-based; remark: listed apart in the source
Mu-type opioid receptor = Mu-type opioid receptor (Homo sapiens, UniProt P35372)
Sequence of Mu-type opioid receptor (P35372 whole entry): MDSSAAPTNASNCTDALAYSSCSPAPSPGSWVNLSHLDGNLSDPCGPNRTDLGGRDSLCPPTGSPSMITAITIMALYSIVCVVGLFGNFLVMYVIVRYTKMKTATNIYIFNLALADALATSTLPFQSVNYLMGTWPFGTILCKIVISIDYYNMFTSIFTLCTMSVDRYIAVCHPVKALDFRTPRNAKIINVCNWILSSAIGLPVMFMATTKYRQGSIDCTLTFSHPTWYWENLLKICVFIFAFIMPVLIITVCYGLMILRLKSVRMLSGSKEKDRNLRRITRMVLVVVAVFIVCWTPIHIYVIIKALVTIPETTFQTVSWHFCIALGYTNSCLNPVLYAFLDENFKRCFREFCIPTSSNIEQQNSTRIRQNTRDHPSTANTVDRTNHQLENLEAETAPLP
Also: assay procedure not described here.

Sequence of Beta-1 adrenergic receptor (P08588 whole entry): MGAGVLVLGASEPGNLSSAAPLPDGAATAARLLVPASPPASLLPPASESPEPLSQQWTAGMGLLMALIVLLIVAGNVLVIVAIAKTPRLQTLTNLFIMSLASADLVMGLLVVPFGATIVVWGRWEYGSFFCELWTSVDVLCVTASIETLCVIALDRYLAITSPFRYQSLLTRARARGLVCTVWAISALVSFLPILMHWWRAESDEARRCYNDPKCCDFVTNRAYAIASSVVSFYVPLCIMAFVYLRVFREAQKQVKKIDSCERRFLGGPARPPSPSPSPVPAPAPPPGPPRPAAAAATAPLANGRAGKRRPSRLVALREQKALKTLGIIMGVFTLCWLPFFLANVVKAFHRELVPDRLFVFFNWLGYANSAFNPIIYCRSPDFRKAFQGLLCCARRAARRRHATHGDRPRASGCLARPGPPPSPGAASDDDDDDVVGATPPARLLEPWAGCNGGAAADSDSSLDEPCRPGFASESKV

Row | Compound | AC50 [1] [µM] | AC50 [2] [µM] | AC50 [3] [µM] | AC50 [4] [µM] | AC50 [5] [µM] | AC50 [6] [µM] | AC50 [7] [µM] | AC50 [8] [µM] | AC50 [9] [µM] | AC50 [10] [µM] | AC50 [11] [µM] | AC50 [12] [µM] | AC50 [13] [µM] | AC50 [14] [µM] | AC50 (Mu-type opioid receptor) [µM]
1 | CCN(CC)C(=O)C1(c2ccccc2)CC1CN (stereo not given) | > 30 | 0.59 | > 30 | > 30 | > 30 | > 30 | > 30 | > 30 |  |  |  |  |  |  | 
2 | CN(C)C(=O)Oc1cccc([N+](C)(C)C)c1 [NEOSTIGMINE] |  |  |  |  |  |  |  |  | > 30 | > 30 | > 30 | > 30 | > 30 | > 30 | > 30
